This assay deals with NIH3T3 cells. The experiment in a line: Cytotoxicity by MTT assay, NIH3T3. The assay is classed as cell-based. The settings on record: Mus musculus, NIH3T3, 72 h, cytotoxicity class, read-out: NIH3T3 cell (IC50/nM). For orientation: Tetrazolium assays rely on reduction of a dye to a coloured formazan, in cell work by metabolically active cells.
As for `Nc1cc(C(F)(F)F)c(-c2cc(C3(S(=O)(=O)c4ccccc4)CCC3)nc(N3CCOCC3)n2)cn1` [Compound S-20], the IC50 lay in the range of 1000 to 3000 nM. In the case of `CS(=O)(=O)C1(c2cc(-c3cnc(N)cc3C(F)(F)F)nc(N3CCOCC3)n2)CCCC1` [Compound S-10], the IC50 was 1000 to 3000 nM. Consider `CC(C)S(=O)(=O)C1(c2cc(-c3cnc(N)cc3C(F)(F)F)nc(N3CCOCC3)n2)CCC1` [Compound S-19], for which the IC50 lay in the range of 1000 to 3000 nM.
